# Measured values published in patent publication US20220273629A1, “METHODS OF TREATING DISORDERS ASSOCIATED WITH ELEVATED LEVELS OF ANTIBODIES THAT INTERACT WITH THE NMDA RECEPTOR” (Aptinyx Inc., priority 2019, published 2022).
# Columns and labels:
# [1] = target: T1, NR2B surface expression in hNR1/PSD95/NR2B expressing HEK cells (Homo sapiens, UniProt Q13224); assay: β-lactamase assay, restoration of NR2B surface expression after purified ANRE patient serum IgG; format: cell-based; conditions: varying concentrations, FIG. 6A-6C
# T1 construct: expressed in transfected cells; transient β-lactamase-hGluN2B
# [2] = target: T1, NR2B surface expression in hNR1/PSD95/NR2B expressing HEK cells; assay: β-lactamase assay, NR2B surface expression, compound alone (absence of Ab), wild-type; format: cell-based; conditions: for surface NR2B expression in wild-type NR2B receptors relative to untreated vehicle controls: no antibody, varying concentrations, FIG. 6A-6C
# Procedure: (§1) Un-transfected (Untfx) cells were used as a negative control for surface β-lactamase activity.
# (§2) hNR1/PSD95/NR2B-expressing HEK cells tagged with a β-lactamase enzyme at the N-terminus of NR2B are incubated with a 1:50 dilution of purified patient serum IgG for 45 min. The cells are washed with buffer to remove antibodies and then incubated for 15 min in the presence or absence of each of compounds A, B, or C at concentrations of 10 fM, 1 pM, 100 pM and 10 nM respectively. After said time, the membrane impermeable substrate nitrocefin and ±each of compounds A, B, and C are added. The NR2B N-terminal β-lactamase cleaves nitrocefin, resulting in a change of absorbance to 486 nm. The absorbance at 486 nm is measured every minute for 30 min.
# (§3) Un-transfected (Untfx) cells were used as a negative control for surface β-lactamase activity. Human IgG (Sigma-Aldrich) at a concentration of 0.5 mg/ml was used as a negative control for non-specific receptor internalization.
# (§4) HEK293 cells stably expressing human GluN1 and PSD-95 were transiently transfected with hGluN2B tagged at the N-terminus with the β-lactamase enzyme using X-tremeGENE9 transfection reagent (Sigma-Aldrich). Transfected cultures were maintained in media containing ketamine (0.18 mg/ml) to minimize excitotoxicity. Twenty-four hours after transfection, cells were re-plated into poly-d-lysine coated 96-well plates at a concentration of 30,000 cells/well. The following day, cells were washed with buffer (HBSS, 10 mM HEPES, […]) and then incubated with a 1:50 dilution of purified patient IgG for 45 min at 37° C. The cells were washed once with buffer and then incubated for 15 min at 37° C. with buffer ±each of compound A, B and C. Nitrocefin in buffer (100 mM final; Cayman Chemical) ±each of compound A, B and C was added to each well and absorbance at 486 nm was measured every minute for 30 min at 37° C. in a plate reader. Un-transfected (Untfx) cells were used as a negative control for surface β-lactamase activity. Human IgG (Sigma-Aldrich) at a concentration of 0.5 mg/ml was used as a negative control for non-specific receptor internalization. Slopes of optical density are graphed as fold change over vehicle, mean ±SEM (n=8-12). Statistics were determined by one-way ANOVA compared to antibody only (Ab).
# [3] = target: T2, NR2B:R393A mutant receptors (Homo sapiens, UniProt Q13224, R393A); assay: β-lactamase assay, NMDAR 2B trafficking in mutant R393A receptors; format: cell-based; conditions: FIG. 6A-6C; for ability to restore cell surface NR2B expression in NR2B:R393A mutant following ANRE patient serum IgG: after exposure to ANRE patient serum IgG
# T2 construct: expressed in transfected cells; transient β-lactamase-hGluN2B R393A
# Procedure: as §3, §4
# [4] = target: T1, NR2B surface expression in hNR1/PSD95/NR2B expressing HEK cells; assay: β-lactamase assay, restoration of NR2B surface expression after ANRE patient CSF; format: cell-based; conditions: after CSF (1:10 dilution) from ANRE patients N1, N2, N3; FIG. 2
# Procedure: In this example hNR1/PSD95/NR2B expressing HEK cells tagged with a β-lactamase enzyme at the N-terminus of NR2B are incubated with CSF (1:10 dilution) from each of three individual ANRE patients (N1, N2, and N3).
# as §4, with “The cells were washed once with buffer and then incubated for 15 min at 37° C. with buffer ±each of compound A, B and C. Nitrocefin in buffer (100 mM final; Cayman Chemical) ±each of compound A, B and C was added to each well and absorbance at 486 nm was measured every minute for 30 min at 37° C. in a plate reader.” left out
# [5] = target: T1, NR2B surface expression in hNR1/PSD95/NR2B expressing HEK cells; assay: β-lactamase assay, restoration of NR2B surface expression after purified ANRE patient serum IgG; format: cell-based; conditions: 45 min purified patient serum IgG 1:50, then 15 min compound at 10 fM, 1 pM, 100 pM, 10 nM; FIG. 1 / FIG. 3
# Procedure: as §1, §2
# Slopes of optical density are graphed as fold change over the vehicle. N=8; Statistics were determined by one-way ANOVA compared to antibody only (Ab). * p≤0.05, ** p≤0.01, *** p≤0.001, **** p≤0.0001 (FIG. 1).
# as §3
# hNR1/PSD95/NR2B expressing HEK cells tagged with a β-lactamase enzyme at the N-terminus of NR2B are incubated with purified patient serum IgG (1:50 dilution) for 45 min. The cells are washed to remove antibodies and then incubated for 15 min in the presence or absence of each of compounds A, B, C, D, E, F, G, and H at concentrations of 10 fM, 1 pM, 100 pM and 10 nM respectively. After said time, nitrocefin in buffer and ±each of compounds A-H are added and the absorbance at 486 nm is measured every minute for 30 min.
# Slopes of optical density are graphed as fold change over the vehicle. N=8-12; Statistics were determined by one-way ANOVA compared to antibody only (Ab). * p≤0.05, ** p≤0.01, *** p≤0.001, **** p≤0.0001 (FIG. 3).
# as §4
# [6] = test system: Schaffer collateral-CA1 synapses in hippocampal slices; assay: Hippocampal slice LTP (fEPSP slope) with focal NR1 antibody application; format: cell-based, rat; conditions: 500 nM bath-applied, FIG. 5B
# Excerpt: Two extracellular recording patch pipettes were placed at equal distances (˜500 μm) on either side of a single bipolar stainless steel stimulating electrode (Frederick Haer Inc.). A single test stimulus was applied each 30 seconds, to evoke field excitatory postsynaptic potentials (fEPSPs) recorded simultaneously at the Control and Antibody (Ab) recording sites. […]
# LTP was induced by the stimulation of Schaffer collateral axons with high frequency theta burst stimulus trains. The fEPSP slope was measured before and after the induction of LTP in hippocampal slices treated with control, control +NR1Ab, Compound A, or Compound A +NR1Ab.
# The experimental protocol to test the effects of focal application of NR1 antibodies on synaptic transmission and long-term potentiation (LTP) of synaptic strength at Schaffer collateral-CA1 synapses in hippocampal slices in vitro is illustrated in FIG. 5A below. […] A single test stimulus was applied each 30 seconds, to evoke field excitatory postsynaptic potentials (fEPSPs) recorded simultaneously at the Control and Antibody (Ab) recording sites. […] Statistics were determined by Student's t-test for unpaired data.
# T1 sequence (Q13224 27-1484, other chains not shown): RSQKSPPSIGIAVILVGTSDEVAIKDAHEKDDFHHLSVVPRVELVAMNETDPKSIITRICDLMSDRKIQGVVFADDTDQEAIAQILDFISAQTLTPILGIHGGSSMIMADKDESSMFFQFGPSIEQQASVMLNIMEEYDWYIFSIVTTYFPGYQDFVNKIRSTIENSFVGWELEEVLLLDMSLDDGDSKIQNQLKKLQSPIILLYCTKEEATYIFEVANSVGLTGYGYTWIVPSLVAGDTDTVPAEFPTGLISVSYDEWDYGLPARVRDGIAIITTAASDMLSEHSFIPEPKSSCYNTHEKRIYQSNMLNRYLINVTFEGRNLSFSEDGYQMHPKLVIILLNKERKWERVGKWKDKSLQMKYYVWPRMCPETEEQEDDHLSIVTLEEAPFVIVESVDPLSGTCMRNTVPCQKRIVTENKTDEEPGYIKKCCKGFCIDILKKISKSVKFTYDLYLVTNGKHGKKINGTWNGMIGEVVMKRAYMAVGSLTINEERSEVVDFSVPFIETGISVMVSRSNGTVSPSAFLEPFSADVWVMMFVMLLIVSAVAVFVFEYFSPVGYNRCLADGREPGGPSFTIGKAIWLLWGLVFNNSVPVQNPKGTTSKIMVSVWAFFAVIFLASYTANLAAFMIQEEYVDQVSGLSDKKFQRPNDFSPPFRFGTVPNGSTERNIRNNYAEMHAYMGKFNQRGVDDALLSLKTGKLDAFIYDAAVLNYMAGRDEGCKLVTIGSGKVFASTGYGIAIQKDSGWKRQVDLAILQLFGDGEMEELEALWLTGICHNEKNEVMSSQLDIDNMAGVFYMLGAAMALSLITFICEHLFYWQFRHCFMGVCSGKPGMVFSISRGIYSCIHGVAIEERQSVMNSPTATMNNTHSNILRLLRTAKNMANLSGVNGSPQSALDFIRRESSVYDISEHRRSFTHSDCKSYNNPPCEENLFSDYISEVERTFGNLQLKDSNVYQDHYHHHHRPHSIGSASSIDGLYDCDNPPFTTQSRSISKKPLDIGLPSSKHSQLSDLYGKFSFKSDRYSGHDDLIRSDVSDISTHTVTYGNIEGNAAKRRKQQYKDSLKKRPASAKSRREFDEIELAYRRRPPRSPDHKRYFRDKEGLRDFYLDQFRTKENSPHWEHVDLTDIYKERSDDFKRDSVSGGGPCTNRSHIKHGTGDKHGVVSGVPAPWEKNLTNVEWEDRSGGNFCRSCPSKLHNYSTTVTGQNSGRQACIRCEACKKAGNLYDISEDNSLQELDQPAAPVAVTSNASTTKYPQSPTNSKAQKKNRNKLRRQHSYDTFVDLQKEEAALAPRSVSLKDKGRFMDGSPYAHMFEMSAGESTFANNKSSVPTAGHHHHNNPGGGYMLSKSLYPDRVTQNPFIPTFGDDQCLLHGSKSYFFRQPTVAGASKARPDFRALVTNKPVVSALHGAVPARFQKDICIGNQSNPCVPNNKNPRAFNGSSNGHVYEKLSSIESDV
# T2 sequence (Q13224 27-1484 R393A, other chains not shown): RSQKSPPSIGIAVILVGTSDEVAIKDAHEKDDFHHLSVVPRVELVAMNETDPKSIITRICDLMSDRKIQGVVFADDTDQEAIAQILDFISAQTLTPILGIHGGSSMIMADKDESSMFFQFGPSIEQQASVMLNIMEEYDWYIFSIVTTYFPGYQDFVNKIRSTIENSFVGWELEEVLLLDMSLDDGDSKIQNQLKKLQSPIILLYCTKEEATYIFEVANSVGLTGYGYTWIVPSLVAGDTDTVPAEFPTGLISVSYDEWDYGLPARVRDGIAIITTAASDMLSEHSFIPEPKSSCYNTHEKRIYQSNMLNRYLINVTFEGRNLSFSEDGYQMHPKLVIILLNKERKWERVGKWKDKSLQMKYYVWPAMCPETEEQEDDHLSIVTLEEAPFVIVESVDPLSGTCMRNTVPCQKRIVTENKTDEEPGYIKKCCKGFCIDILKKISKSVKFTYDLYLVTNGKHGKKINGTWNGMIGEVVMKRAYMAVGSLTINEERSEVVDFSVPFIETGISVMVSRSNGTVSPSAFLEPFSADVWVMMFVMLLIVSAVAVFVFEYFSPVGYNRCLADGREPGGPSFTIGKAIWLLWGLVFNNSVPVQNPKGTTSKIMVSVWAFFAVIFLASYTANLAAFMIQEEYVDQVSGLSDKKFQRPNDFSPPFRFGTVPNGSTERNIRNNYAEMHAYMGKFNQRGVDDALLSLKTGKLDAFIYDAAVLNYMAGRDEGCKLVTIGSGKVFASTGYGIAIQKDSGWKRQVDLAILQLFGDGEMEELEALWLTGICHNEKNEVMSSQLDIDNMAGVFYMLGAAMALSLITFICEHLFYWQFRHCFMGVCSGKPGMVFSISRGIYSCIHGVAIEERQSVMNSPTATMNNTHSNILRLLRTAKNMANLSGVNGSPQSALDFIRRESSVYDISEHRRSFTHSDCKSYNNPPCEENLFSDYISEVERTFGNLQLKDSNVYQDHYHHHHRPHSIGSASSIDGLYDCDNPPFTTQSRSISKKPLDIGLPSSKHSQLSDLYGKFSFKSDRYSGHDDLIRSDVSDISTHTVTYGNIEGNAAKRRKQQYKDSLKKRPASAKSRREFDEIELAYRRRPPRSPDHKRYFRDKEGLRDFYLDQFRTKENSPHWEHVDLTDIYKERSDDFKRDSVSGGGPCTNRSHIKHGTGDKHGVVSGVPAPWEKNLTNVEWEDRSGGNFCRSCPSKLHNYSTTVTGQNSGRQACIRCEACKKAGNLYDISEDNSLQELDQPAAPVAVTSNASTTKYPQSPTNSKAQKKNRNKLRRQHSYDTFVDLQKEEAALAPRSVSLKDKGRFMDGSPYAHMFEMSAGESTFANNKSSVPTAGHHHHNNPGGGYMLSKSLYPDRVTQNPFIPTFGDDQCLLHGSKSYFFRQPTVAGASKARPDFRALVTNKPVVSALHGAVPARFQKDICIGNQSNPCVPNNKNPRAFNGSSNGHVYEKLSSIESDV
compound,measurement,setting,value
CC(C)C(=O)N1CCC[C@@]12CN([C@H](C(N)=O)[C@@H](C)O)C2=O [B],"restoration of NR2B surface expression to ""No Ab"" control level, wild-type NR2B (Example 6)",[1],restore NR2B surface expression to levels observed in the “No Ab” control
same,surface NR2B expression in wild-type NR2B receptors relative to untreated vehicle controls,[2],increase surface NR2B expression
same,ability to restore cell surface NR2B expression in NR2B:R393A mutant,[3],abolishes the ability
same,ability to restore cell surface NR2B expression in NR2B:R393A mutant following ANRE patient serum IgG,[3],abolishes the ability
same,restoration of cell surface NR2B expression to vehicle levels,[4],restored cell surface NR2B expression to vehicle levels
same,"restoration of NR2B surface expression to ""No Ab"" control level",[5],restore NR2B surface expression to levels observed in the “No Ab” control
COc1ccc(CN2C[C@@]3(CCNC(=O)C3)C2=O)cc1 [C],"restoration of NR2B surface expression to ""No Ab"" control level, wild-type NR2B (Example 6)",[1],restore NR2B surface expression to levels observed in the “No Ab” control
same,surface NR2B expression in wild-type NR2B receptors relative to untreated vehicle controls,[2],increase surface NR2B expression
same,ability to restore cell surface NR2B expression in NR2B:R393A mutant,[3],abolishes the ability
same,ability to restore cell surface NR2B expression in NR2B:R393A mutant following ANRE patient serum IgG,[3],abolishes the ability
same,restoration of cell surface NR2B expression to vehicle levels,[4],restored cell surface NR2B expression to vehicle levels
same,"restoration of NR2B surface expression to ""No Ab"" control level",[5],restore NR2B surface expression to levels observed in the “No Ab” control
CC(C)C(=O)N1CCC[C@]12CN([C@H](C(N)=O)[C@@H](C)O)C2=O [Compound A],"restoration of NR2B surface expression to ""No Ab"" control level, wild-type NR2B (Example 6)",[1],restore NR2B surface expression to levels observed in the “No Ab” control
same,increase in cell surface NR2B expression,"[2]; 1 pM, in the absence of Ab, positive control, wild-type",~20%
same,surface NR2B expression in wild-type NR2B receptors relative to untreated vehicle controls,[2],increase surface NR2B expression
same,rescue of Schaffer collateral-CA1 LTP from acute NMDAR1 antibody effects,[6]; NR1 antibody 1:20 dilution,rescues Schaffer collateral-CA1 LTP
same,magnitude of LTP relative to control,"[6]; after high frequency stimulation, no antibody",increased the magnitude of LTP
same,ability to restore cell surface NR2B expression in NR2B:R393A mutant,[3],abolishes the ability
same,ability to restore cell surface NR2B expression in NR2B:R393A mutant following ANRE patient serum IgG,[3],abolishes the ability
same,restoration of cell surface NR2B expression to vehicle levels,[4],restored cell surface NR2B expression to vehicle levels
same,"restoration of NR2B surface expression to ""No Ab"" control level",[5],restore NR2B surface expression to levels observed in the “No Ab” control
COc1ccc(CN2C[C@]3(CCNC(=O)C3)C2=O)cc1 [Compound D],"restoration of NR2B surface expression to ""No Ab"" control level",[5],failed to restore NR2B surface expression
CC(C)CN1CCC[C@]12CN([C@H](C(N)=O)[C@@H](C)O)C2=O [E],"restoration of NR2B surface expression to ""No Ab"" control level",[5],failed to restore NR2B surface expression
CC(C)CN1CCC[C@@]12CN([C@H](C(N)=O)[C@@H](C)O)C2=O [F],"restoration of NR2B surface expression to ""No Ab"" control level",[5],failed to restore NR2B surface expression
CC(C)CN1[C@@]2(CC[C@@]13CNC3=O)CNC2=O [G],"restoration of NR2B surface expression to ""No Ab"" control level",[5],failed to restore NR2B surface expression
CC(C)CN1[C@]2(CC[C@]13CNC3=O)CNC2=O [H],"restoration of NR2B surface expression to ""No Ab"" control level",[5],failed to restore NR2B surface expression
